For data set [1] the following is noted: b7: ref [9], [10]; b55: ref [10]; cited from earlier work.
The target in data set [2] is PmtCD PSM transporter (C2D2 heterotetramer) (S. aureus). The data set is described as follows: MST.

Entries after “also recorded” stand apart in the source; their conditions may differ. Peptide text beside a SMILES is read from it. Bounds are passed on as bounds.

Consider `CSCC[C@H](NC=O)C(=O)N[C@@H](CCC(=O)O)C(=O)N[C@@H](C)C(=O)N[C@H](C(=O)N[C@@H](C)C(=O)N[C@@H](CCCCN)C(=O)N[C@@H](CC(C)C)C(=O)N[C@@H](Cc1ccccc1)C(=O)N[C@@H](CCCCN)C(=O)N[C@@H](Cc1ccccc1)C(=O)N[C@@H](Cc1ccccc1)C(=O)N[C@@H](CCCCN)C(=O)N[C@@H](CC(=O)O)C(=O)N[C@@H](CC(C)C)C(=O)N[C@@H](CC(C)C)C(=O)NCC(=O)N[C@@H](CCCCN)C(=O)N[C@@H](Cc1ccccc1)C(=O)N[C@@H](CC(C)C)C(=O)NCC(=O)N[C@@H](CC(N)=O)C(=O)N[C@@H](CC(N)=O)C(=O)O)C(C)C` [PSMα3F3A] (HELM PEPTIDE1{[O=C[*:2]].M.E.A.V.A.K.L.F.K.F.F.K.D.L.L.G.K.F.L.G.N.N}$$$$V2.0), for which the “cytotoxicity (in words)” value in data set [1] is on record as “cytotoxic; also recorded: maintains cytotoxicity”.
For the compound PSMα3F3A peptide, the stoichiometry N – broadly, the number of molecules, sites or subunits per partner or assembly – in data set [2] was above 2.

The values are drawn from article PMC7527219 (Science Advances, 2020).
